Drawing on PubChem BioAssay AID328 (DTP/NCI, 2004), this text covers T/C for 16 compounds.

Inconclusive results and toxic doses are left out.

For the experiment, the system named is BDF1 mice, P388 leukemia ip, median survival T/C. Briefly: NCI In Vivo Anticancer Drug Screen. Data for tumor model P388 Leukemia (intraperitoneal) in B6D2F1 (BDF1) mice. The settings on record: endpoint: median survival time, higher = longer survival. The gist of the method: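 T/C = treated-group survival ÷ vehicle-control survival; tumour transplanted into mice before dosing.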

[1] abbreviates: dose: 100.0 mg/kg/injection, schedule: Q04DX003 (ip), vehicle: saline with Tween-80.
[2] abbreviates: dose: 100.0 mg/kg/injection, schedule: Q01DX001 (ip), vehicle: Klucel (hydroxypropylcellulose) (HPC).
Setting [3] is: dose: 100.0 mg/kg/injection, schedule: Q04DX003 (ip), vehicle: Klucel (hydroxypropylcellulose) (HPC).
Setting [4] is: dose: 200.0 mg/kg/injection, schedule: Q01DX001 (ip), vehicle: Klucel (hydroxypropylcellulose) (HPC).
Setting [5] is: dose: 200.0 mg/kg/injection, schedule: Q04DX003 (ip), vehicle: Klucel (hydroxypropylcellulose) (HPC).
Where [6] appears, read: dose: 400.0 mg/kg/injection, schedule: Q01DX001 (ip), vehicle: Klucel (hydroxypropylcellulose) (HPC).
Where [7] appears, read: dose: 12.5 mg/kg/injection, schedule: Q01DX009 (ip), vehicle: saline.
[8] abbreviates: dose: 25.0 mg/kg/injection, schedule: Q04DX003 (ip), vehicle: saline.
The mark [9] stands for this setting: dose: 50.0 mg/kg/injection, schedule: Q04DX003 (ip), vehicle: saline.
Where [10] appears, read: dose: 100.0 mg/kg/injection, schedule: Q04DX003 (ip), vehicle: saline.
Where [11] appears, read: dose: 200.0 mg/kg/injection, schedule: Q01DX009 (ip), vehicle: saline.
Where [12] appears, read: dose: 200.0 mg/kg/injection, schedule: Q04DX003 (ip), vehicle: saline.
Where [13] appears, read: dose: 100.0 mg/kg/injection, schedule: Q01DX009 (ip), vehicle: saline.
Setting [14] is: dose: 400.0 mg/kg/injection, schedule: Q01DX009 (ip), vehicle: saline.
Where [15] appears, read: dose: 400.0 mg/kg/injection, schedule: Q04DX003 (ip), vehicle: saline.

With `O=NN(CCCl)C(=O)Nc1ccc(I)cc1`, the T/C runs as follows: (dose: 0.44 mg/kg/injection, schedule: Q01DX009 (ip), vehicle: saline with Tween-80) 113 % of control; (dose: 0.66 mg/kg/injection, schedule: Q01DX009 (ip), vehicle: saline with Tween-80) 118 % of control; (dose: 0.75 mg/kg/injection, schedule: Q04DX003 (ip), vehicle: saline) 100 % of control; (dose: 0.9 mg/kg/injection, schedule: Q01DX009 (ip), vehicle: saline) 104 % of control; (dose: 1.5 mg/kg/injection, schedule: Q04DX003 (ip), vehicle: saline) 109 % of control; (dose: 3.0 mg/kg/injection, schedule: Q04DX003 (ip), vehicle: saline) 109 % of control. Further, the T/C runs as follows: (dose: 3.6 mg/kg/injection, schedule: Q01DX009 (ip), vehicle: saline) 150 % of control; (dose: 44.0 mg/kg/injection, schedule: Q04DX003 (ip), vehicle: saline sonified) 150 % of control; (dose: 66.0 mg/kg/injection, schedule: Q04DX003 (ip), vehicle: saline sonified) 160 % of control; under setting [1], 215 % of control.
Regarding `C#CC(C)(C)OCC(CCl)OC(N)=O` (stereo unspecified), the T/C runs as follows: (dose: 50.0 mg/kg/injection, schedule: Q04DX003 (ip), vehicle: saline with Tween-80) 105 % of control; under setting [1], 110 % of control; (dose: 200.0 mg/kg/injection, schedule: Q04DX003 (ip), vehicle: saline with Tween-80) 100 % of control; (dose: 400.0 mg/kg/injection, schedule: Q04DX003 (ip), vehicle: saline with Tween-80) 115 % of control.
As for `S=C(NNC(=S)Nc1ccc(Cl)cc1)NNc1ccccc1`, the T/C runs as follows: (dose: 25.0 mg/kg/injection, schedule: Q01DX009 (ip), vehicle: other) 100 % of control; (dose: 50.0 mg/kg/injection, schedule: Q01DX009 (ip), vehicle: other) 100 % of control; (dose: 50.0 mg/kg/injection, schedule: Q04DX003 (ip), vehicle: Klucel (hydroxypropylcellulose) (HPC)) 104 % of control; under setting [2], 100 % of control; (dose: 100.0 mg/kg/injection, schedule: Q01DX009 (ip), vehicle: other) 115 % of control; under setting [3], 100 % of control. In addition, the T/C was 110 % of control (dose: 150.0 mg/kg/injection, schedule: Q01DX009 (ip), vehicle: Klucel (hydroxypropylcellulose) (HPC)); 90 % of control under setting [4]; 100 % of control under setting [5]; 110 % of control (dose: 220.0 mg/kg/injection, schedule: Q01DX009 (ip), vehicle: Klucel (hydroxypropylcellulose) (HPC)); 110 % of control (dose: 225.0 mg/kg/injection, schedule: Q01DX009 (ip), vehicle: Klucel (hydroxypropylcellulose) (HPC)); 110 % of control (dose: 335.0 mg/kg/injection, schedule: Q01DX009 (ip), vehicle: Klucel (hydroxypropylcellulose) (HPC)). Also, the T/C under setting [6] was 104 % of control.
With `O=C(/C=C/c1ccc2c(c1)OCO2)/C=C/c1ccc2c(c1)OCO2`, the T/C is, setting by setting: under setting [7], 101 % of control; (dose: 12.5 mg/kg/injection, schedule: Q04DX003 (ip), vehicle: saline) 105 % of control; (dose: 25.0 mg/kg/injection, schedule: Q01DX009 (ip), vehicle: saline) 96 % of control; under setting [8], 112 % of control; under setting [9], 114 % of control; under setting [10], 114 % of control. For the same compound, the T/C under setting [11] was 92 % of control and the T/C under setting [12] was 114 % of control.
As to `CCC[CH2][Sn]1([CH2]CCC)[O]OC(c2ccc(OC)cc2)[O]1` (stereo unspecified), the T/C runs as follows: (dose: 3.12 mg/kg/injection, schedule: Q01DX009 (sc), vehicle: olive oil, sesame oil, peanut oil) 112 % of control; (dose: 6.25 mg/kg/injection, schedule: Q01DX009 (sc), vehicle: olive oil, sesame oil, peanut oil) 99 % of control.
Take `Nc1nc(N)c2cc(CNc3ccc(Cl)c(C(=O)NC(CC(=O)O)C(=O)O)c3)cnc2n1` (stereo unspecified): the T/C under setting [13] was 100 % of control; the T/C under setting [10] is 102 % of control; the T/C under setting [11] is 100 % of control; the T/C under setting [12] is 99 % of control; the T/C under setting [14] was 108 % of control; the T/C under setting [15] is 94 % of control.
As to `CNC(C)COc1ccccc1` (stereo unspecified), the T/C was 104 % of control under setting [8], 100 % of control under setting [9] and 90 % of control under setting [10].
With `CCOc1nsc(OCC)n1`, the T/C was 86 % of control under setting [2] and 104 % of control under setting [4].
For `CCCCCCCCCCCCCCCC(=O)N1CCC(N2CCCCC2)CC1`, the T/C under setting [4] was 109 % of control and the T/C under setting [6] is 90 % of control.
As for `CS(=O)(=O)N(CC(=O)O)Cc1ccccc1`, the T/C by setting is: (dose: 50.0 mg/kg/injection, schedule: Q04DX003 (ip), vehicle: sodium bicarbonate) 107 % of control; (dose: 100.0 mg/kg/injection, schedule: Q04DX003 (ip), vehicle: sodium bicarbonate) 119 % of control; (dose: 200.0 mg/kg/injection, schedule: Q04DX003 (ip), vehicle: sodium bicarbonate) 103 % of control; (dose: 400.0 mg/kg/injection, schedule: Q04DX003 (ip), vehicle: sodium bicarbonate) 110 % of control.
In the case of `O=C(OC1C(OC(=O)C(Cl)Cl)C(OC(=O)C(Cl)Cl)C(OC(=O)C(Cl)Cl)C(OC(=O)C(Cl)Cl)C1OC(=O)C(Cl)Cl)C(Cl)Cl` (stereo unspecified), the T/C was 95 % of control (dose: 37.5 mg/kg/injection, schedule: Q01DX001 (ip), vehicle: saline sonified); 100 % of control (dose: 75.0 mg/kg/injection, schedule: Q01DX001 (ip), vehicle: saline sonified); 86 % of control (dose: 150.0 mg/kg/injection, schedule: Q01DX001 (ip), vehicle: saline sonified).
Consider `C[C@]12CC[C@@H]3c4ccc(O)cc4CC[C@H]3[C@@H]1C[C@H](O)C2`, for which the T/C runs as follows: (dose: 100.0 mg/kg/injection, schedule: Q01DX009 (ip), vehicle: Klucel (hydroxypropylcellulose) (HPC)) 100 % of control; under setting [3], 100 % of control; (dose: 200.0 mg/kg/injection, schedule: Q01DX009 (ip), vehicle: Klucel (hydroxypropylcellulose) (HPC)) 95 % of control; under setting [5], 100 % of control; (dose: 400.0 mg/kg/injection, schedule: Q01DX009 (ip), vehicle: Klucel (hydroxypropylcellulose) (HPC)) 112 % of control; (dose: 400.0 mg/kg/injection, schedule: Q04DX003 (ip), vehicle: Klucel (hydroxypropylcellulose) (HPC)) 91 % of control.
Take `Oc1cc(Cl)c(Cl)c(Cl)c1`: the T/C (dose: 100.0 mg/kg/injection, schedule: Q04DX002 (ip), vehicle: saline with Tween-80) was 102 % of control; the T/C (dose: 200.0 mg/kg/injection, schedule: Q04DX002 (ip), vehicle: saline with Tween-80) was 98 % of control; the T/C (dose: 400.0 mg/kg/injection, schedule: Q04DX002 (ip), vehicle: saline with Tween-80) was 97 % of control.
As to `CC1=CCCC1`, the T/C reads like this: under setting [13], 118 % of control; under setting [10], 113 % of control; under setting [11], 118 % of control; under setting [12], 104 % of control; under setting [14], 118 % of control; under setting [15], 104 % of control.
For the compound `NC1CCCCC1.[O]=[Cr](=[O])([OH])[OH]`, the T/C (dose: 6.25 mg/kg/injection, schedule: Q01DX009 (ip), vehicle: saline) is 100 % of control and the T/C under setting [7] was 90 % of control.
As to `C[n+]1c(-c2ccc(Cl)c(Cl)c2)c2cc(N)ccc2c2ccccc21`, the T/C (dose: 0.78 mg/kg/injection, schedule: Q01DX009 (ip), vehicle: water) is 107 % of control; the T/C (dose: 0.78 mg/kg/injection, schedule: Q04DX003 (ip), vehicle: water) was 100 % of control; the T/C (dose: 1.56 mg/kg/injection, schedule: Q01DX009 (ip), vehicle: water) is 114 % of control; the T/C (dose: 1.56 mg/kg/injection, schedule: Q04DX003 (ip), vehicle: water) was 100 % of control; the T/C (dose: 3.12 mg/kg/injection, schedule: Q04DX003 (ip), vehicle: water) is 106 % of control; the T/C (dose: 6.25 mg/kg/injection, schedule: Q04DX003 (ip), vehicle: water) is 106 % of control. For the same compound, the T/C (dose: 12.5 mg/kg/injection, schedule: Q01DX009 (ip), vehicle: water) was 109 % of control.
